# Laboratory results as given in patent US20200353438A1, “METHOD OF FABRICATING CELL ARRAYS AND USES THEREOF” (StemoniX Inc., priority 2014, published 2020).
# System: beating H9 embryonic stem cell derived cardiomyocytes
# Assay: Drug dosing of beating cardiomyocyte hydrogel array, observed by camera
# Assay type: cell-based
# Conditions: 1×16 GelMa array after 3 days incubation, visual camera observation
# Method: In one example, a Labcyte Echo Model 555 nano liter sonic dispensing system was used to deliver 2 heart drugs, Satolol an Antiarrhythmic drug and Isoproteronol a […], to the fabricated array. The drugs were diluted to 2.25 uM in cell media nutrient solution to prevent dehydration. The Echo 555 liquid handler revolutionizes liquid handling with acoustic energy. Sound waves eject precisely sized droplets from a source onto a microplate, slide or other surface suspended above the source. […] Fluids are transferred in nanoliter increments. Larger volumes are transferred at the rate of hundreds of droplets per second. By using this non contact method it minimizes any contact that could damage or kill the cells as found in other dispensing methods. It also allows for the use of very small quantities thus allowing users to screen molecules that are scarce or difficult to manufacture thus reducing cost. In addition, the X and Y position of the dispensing head can be precisely located over the N×N array location of interest thereby allowing different locations to have a drug of interest administered.
# beating H9 embryonic stem cell derived cardiomyocytes were used on day 25 of differentiation. After disassociation a vial with 1 mL of suspension was produced. […] Within those it was determined that 8.38×10^5 live cells were present with tryptan blue. […]
SMILES,effect on refectory period (pause in beating) of irregularly beating heart cells,increase in the heart cells beating (dosing with 10 nM)
CC(C)NCC(O)c1ccc(O)c(O)c1 (centres unmarked) [Isoproteronol],removed the refectory period (pause in beating) of some irregularly beating heart cells,
CC(C)NCC(O)c1ccc(NS(C)(=O)=O)cc1 (centres unmarked) [Satolol],,30-40%
